This series can be described thus: Genotoxicity in Salmonella typhimurium TA98 at 30 uM in absence of rat liver S9 fraction by Ames test. It counts as toxicity. The note with it: salmonella enterica subsp. enterica serovar typhimurium, s9, 30 µM.

This is an account of results in ChEMBL document CHEMBL4373711, “Development of 3,5-Dinitrophenyl-Containing 1,2,4-Triazoles and Their Trifluoromethyl Analogues as Highly Efficient Antitubercular Agents Inhibiting Decaprenylphosphoryl-β-d-ribofuranose 2'-Oxidase” (J Med Chem, 2019).

The structures appear in SMILES notation.

In the case of `O=[N+]([O-])c1ccc2c(c1)Cc1ccccc1-2` [2-NITROFLUORENE], the Activity entry is “Toxic”.
